In paper PMC12652113, “Fluorescent Albumin-Binding N-Propylbenzene Indolenine-Based Squaraines as Potential Candidates for Prostate Cancer Photodynamic Therapy Photosensitizers” (International Journal of Molecular Sciences, 2025):
“Also recorded” adds a separate entry of the source. Like-named read-outs stand apart in the source and are kept apart here.

Legend:
[1] = target: human serum albumin (HSA) (Homo sapiens, UniProt P02768); assay: Fluorometric squaraine-albumin binding titration; details: for detection limit (DL): HSA detection, DL=3σ/S; for quantification limit (QL): HSA quantification, QL=10σ/S; for fluorescence intensity without protein (F0): dye 2.0 µM in phosphate buffer, no HSA; for fluorescence intensity at the highest protein concentration (F): dye 2.0 µM, highest HSA concentration; for Stokes shift (ΔS) / absorption maximum (λabs) / emission maximum (λem) / fluorescence quantum yield (ΦF): phosphate buffer (pH 7.4), HSA presence; for incubation time for maximum interaction with HSA / incubation time to reach maximum fluorescence with HSA: read at 0 min, 3 h, 24 h; for F/F0: ratio of fluorescence with HSA to fluorescence without HSA; for incubation time to reach maximum fluorescence with HSA: room temperature, protected from light
Experimental: For fluorometric experiments, the squaraine stock solutions were initially prepared in dimethylformamide and subsequently diluted with phosphate buffer for the protein–dye interaction analysis. Human serum albumin stock solution was then added to these mixtures, while keeping the dye concentration fixed at 2.0 µM and varying the protein concentration from 0 to 3.0 µM (0.0 to 3.0 µM for squaraines 5, 9, and 11, and from 0 to 6.0 µM for squaraine 13). Fluorescence intensities of the resulting solutions were recorded after 0, 3, and 24 h of incubation with the protein. The excitation wavelengths and excitation/emission slit widths used for the measurements were optimized for each dye, as listed in Table 6.
The squaraine-albumin binding constants was calculated using the Benesi–Hildebrand equation (Equation (3)) based on the data obtained from the fluorescence experiments:(3) 1/Fx−F0=1/F∞−F0+1/Kb(F∞−F0)1/[HSA] where F0 is the fluorescence intensity of the squaraine in albumin-free buffer, Fx is the fluorescence observed after protein incubation at a specific concentration, F∞ is the fluorescence at the point of complete interaction, Kb is the binding constant, and [HSA] is the albumin concentration.
Quantification and detection limits (QL and DL, respectively) were determined from a calibration curve of maximum fluorescence intensity against protein concentration. The slope of this curve was then used to calculate the method’s sensitivity using Equations (4) and (5):(4) QL=10σ/S (5) DL=3σ/S where σ refers to the blank standard deviation and S (sensitivity) to the linear regression slope between the fluorescence intensity and albumin concentration.

[2] = system: prostate adenocarcinoma (PC-3) cell line; assay: MTT dark and light-induced cytotoxicity in PC-3; format: cell-based, human; details: for IC50: Homo sapiens, 24 h incubation; for tumor selectivity ratio (TSR): IC50 NHDF irradiated/IC50 PC-3 irradiated; for Photodynamic ratio (PTR): PC-3, IC50 dark/IC50 irradiated
Experimental: For potential applicability as photosensitizers in PDT, these candidates are expected to display cytotoxic effects only after photoactivation, namely, and preferably restricted to target tissue cells, without inducing damage to healthy counterparts. To evaluate this, prostate adenocarcinoma PC-3 cells and non-tumoral NHDF fibroblasts were incubated with increasing concentrations of the squaraine dyes for 24 h. Subsequently, the cells were irradiated using an LED system centered at 663 nm, a wavelength close to the absorption maximum of the monomeric dye forms. Twenty-four hours post-irradiation, cellular metabolic activity was assessed by the MTT assay.
The in cell photocytotoxicity of the squaraine dyes was assessed using the MTT assay. When cells reached 90–95% confluence, they were trypsinized using a trypsin-EDTA solution (0.125 g/L trypsin, 0.02 g/L EDTA), counted via trypan-blue exclusion in a Neubauer chamber, and diluted to 2 × 10^4 cells/mL. A 100 µL aliquot of this suspension was seeded into each well of 96-well plates and incubated for 48 h to allow for cell attachment and resumption of proliferation.
After this period, the medium was removed, and cells were treated with various concentrations of the squaraine dyes (0.01, 0.1, 1, 2.5, 5, and 10 µM) in the appropriate culture medium. […] Negative controls consisted of cells exposed only to culture medium. All experiments were performed in quadruplicate and independently repeated.
After 24 h of exposure to the dyes, the cells were subjected to two different irradiation conditions: the first group was not irradiated and was protected from ambient light for 21 min, and the second group was irradiated for 7 min.
Twenty-four hours post-irradiation, the culture medium was removed, cells were washed with 100 µL PBS, and 100 µL of MTT solution (5 mg/mL in serum- and antibiotic-free medium) was added per well. Cells were incubated for 4 h at 37 °C, after which the supernatant was discarded, and the formazan crystals were solubilized in dimethyl sulfoxide. Absorbance was measured at 570 nm using a Bio-Rad xMark microplate reader.
Cell viability was expressed as the percentage of absorbance in treated samples relative to the untreated negative control. Data were statistically analyzed by ordinary two-way ANOVA followed by the Šidák multiple comparisons test, comparing irradiated and non-irradiated conditions at the same concentration, with differences considered statistically significant at a p-value < 0.05. Half-maximal inhibitory concentration values reported in this work were obtained by fitting the data to a sigmoidal model with a 95% confidence interval. All assays were performed in quadruplicate and replicated independently at least twice. Phototoxicity and tumor selectivity ratios were quantified according to Equations (6) and (7):(6) PTR = IC50 dark condition/IC50 irradiated condition (7) TSR = IC50 for NHDF cells under irradiated condition/IC50 for cancer cell line under irradiated condition
Irradiation was performed using a light-emitting diode array centered at 663 ± 8 nm to match the absorption maximum of the dyes. The LED (Roithner; 8.3 mW radiant flux) was integrated into flat-bottom 96-well plates and powered by a regulated current source. The irradiance was 15.8 mW/cm^2, and the total energy delivered per well was 3.49 J after 7 min, ensuring precise light dosing for all experiments.

[3] = Aggregation behavior (Vis absorption in phosphate buffer, with or without Triton X-100); format: physicochemical; details: phosphate buffer vs DMSO
Experimental: Squaraine dyes were dissolved in dimethyl sulfoxide, whereas zinc phthalocyanine required dimethylformamide as a solvent. All stock solutions were prepared at 0.67 mM concentration and stored in the dark at 4 °C until further use. For spectroscopic characterization, 1.0 µM stock solutions of the squaraine dyes in dimethyl sulfoxide were serially diluted into a series of solvents (chloroform, dimethyl sulfoxide, methanol, and phosphate buffer) to obtain at least five defined concentrations. The absorption spectra of these dilutions were recorded and used to calculate molar extinction coefficients according to the Beer–Lambert law. Additional working solutions at a 1.0 µM concentration were prepared in dimethyl sulfoxide and buffer, and 1.0% Triton X-100 was added where required to investigate dye aggregation.

[4] = slope of fluorescence intensity vs HSA concentration
[5] = light or radiation study, PC-3, Light, 7 min LED 663 nm, MTT 24 h post-irradiation
[6] = phosphate buffer, bound vs free

human serum albumin (HSA), sequence (P02768 25-609): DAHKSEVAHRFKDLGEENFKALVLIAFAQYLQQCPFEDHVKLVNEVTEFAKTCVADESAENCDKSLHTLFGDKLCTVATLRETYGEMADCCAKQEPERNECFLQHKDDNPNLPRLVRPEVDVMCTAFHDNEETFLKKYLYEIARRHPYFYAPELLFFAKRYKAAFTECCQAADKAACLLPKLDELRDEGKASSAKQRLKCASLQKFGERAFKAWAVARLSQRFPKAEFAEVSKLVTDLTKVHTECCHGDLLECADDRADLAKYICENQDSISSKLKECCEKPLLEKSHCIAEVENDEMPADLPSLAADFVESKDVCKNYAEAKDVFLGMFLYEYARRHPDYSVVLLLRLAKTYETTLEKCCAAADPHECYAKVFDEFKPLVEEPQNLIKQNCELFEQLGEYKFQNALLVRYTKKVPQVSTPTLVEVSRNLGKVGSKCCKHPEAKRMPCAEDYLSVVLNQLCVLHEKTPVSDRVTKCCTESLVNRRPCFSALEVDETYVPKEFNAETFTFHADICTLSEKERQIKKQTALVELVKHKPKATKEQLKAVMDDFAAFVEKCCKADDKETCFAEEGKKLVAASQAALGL

Compound	detection limit (DL) [1] [nM]	quantification limit (QL) [1] [nM]	fluorescence intensity without protein (F0) [1] [a.u.]	fluorescence intensity at the highest protein concentration (F) [1] [a.u.]	Stokes shift (ΔS) [1] [nm]	absorption maximum (λabs) [1] [nm]	emission maximum (λem) [1] [nm]	fluorescence quantum yield (ΦF) [1]	incubation time for maximum interaction with HSA [1]	sensitivity (S) [1, 4]	IC50 [2, 5] [µM]	IC50 ([2]; PC-3, Dark, MTT 24 h later) [µM]	tumor selectivity ratio (TSR) [2]	Photodynamic ratio (PTR) [2]	aggregation behavior [3]	sensitivity (S) [1] [nM⁻¹]	F/F0 [1]	incubation time to reach maximum fluorescence with HSA [1] [h]	also measured
CNC1=C(C=C2N(CCCc3ccccc3)c3ccccc3C2(C)C)C(=O)C1=CC1=[N+](CCCc2ccccc2)c2ccccc2C1(C)C.[I-] [Dye 11, 2-{3-[3,3-Dimethyl-1-(3-phenylpropyl)indolin-2-ylidenemethyl]-2-(methylamino)-4-oxocyclobut-2-en-1-ylidenemethyl}-3,3-dimethyl-1-(3-phenylpropyl)-indol-1-ium Iodide]	420	1401	1.00	360.94	10	652	662	0.04	immediately upon addition to the protein solution	119 µM	0.09	1.44	36.0	16	coexistence of H- and J-type aggregates; also recorded: lowest tendency to aggregate				
CC1(C)C(=CC2=C(N)C(=CC3=[N+](CCCc4ccccc4)c4ccccc4C3(C)C)C2=O)N(CCCc2ccccc2)c2ccccc21.[I-] [Dye 9, 2-{2-Amino-3-[3,3-dimethyl-1-(3-phenylpropyl)indolin-2-ylidenemethyl]-4-oxocyclobut-2-en-1-ylidenemethyl}-3,3-dimethyl-1-(3-phenylpropyl)-indol-1-ium Iodide]	324	1079	9.30	917.53	8	651	659	0.07	immediately upon addition to the protein solution	318 µM	0.093	1.21	40.8	13	coexistence of H- and J-type aggregates	318000	98.66		
CC1(C)C(=CC2=C([O-])C(=CC3=[N+](CCCc4ccccc4)c4ccccc4C3(C)C)C2=O)N(CCCc2ccccc2)c2ccccc21 [Dye 5, 4-[3,3-Dimethyl-1-(3-phenylpropyl)-indol-1-ium-2-ylmethylene]-2-[3,3-dimethyl-1-(3-phenylpropyl)indolin-2-ylidenemethyl]-3-oxocyclobut-1-en-1-olate]	266	886	11.46	680.15	45	604	649	0.20		209000 nM⁻¹	0.898	> 10			coexistence of H- and J-type aggregates	209000	59.35	24	blue shift in maximum emission wavelength upon HSA binding [1, 6]: 47 nm; reduction in Stokes shift upon HSA binding [1, 6]: 50%; reduction in viability ([2]; PC-3 cells, irradiated, 1.0 μM): approximately 60%
CC1(C)C(=CC2=C(NCc3ccc4ccc5cccc6ccc3c4c56)C(=CC3=[N+](CCCc4ccccc4)c4ccccc4C3(C)C)C2=O)N(CCCc2ccccc2)c2ccccc21.[I-] [Dye 14, 2-({3-[3,3-dimethyl-1-(3-phenylpropyl)indolin-2-ylidenemethyl]-4-oxo-2-[(pyren-1-ylmethyl)amino]cyclobut-2-en-1-ylidene}methyl)-3,3-dimethyl-1-(3-phenylpropyl)-indol-1-ium Iodide]	361	1203	4.12	115.89	4	663	667	0.01		39 µM	> 10	> 10			predominantly form J-aggregates		28.13	24	
